Laboratory results from US12065434B2, “Metabolites of GLP1R agonists” (Pfizer Inc., priority 2020, dated 2024).

Legend:
[1] = Metabolite profiling of pooled human plasma after repeat oral dosing of Compound 1 (HPLC/UV/MS)
Procedure: Plasma samples from nine human subjects following oral administration of 120 mg BID for 28 days in a clinical study were examined for metabolites.
Individual subject's plasma (from nine human subjects with 120 mg BID dose Day 28) were pooled in proportion to the time period represented by each to yield a pool for profiling that was representative of the AUC (0-12 hr) according to the method of Hamilton et al. [Hamilton R A, Garnett W R, Kline B J. Determination of a mean valproic acid serum level by assay of a single pooled sample. […] Pooled plasma time points were first prepared by aliquoting equal amounts (1.0 mL) of plasma from each subject prior to making a single Hamilton pool. Blank plasma pools were made by taking equal aliquots of predose samples. To a 2 mL aliquot of each pooled plasma sample was added 6 mL of acetonitrile and then mixed. Protein precipitated samples were centrifuged for 5 minutes at 2000×g and the supernatants were transferred to other clean 15 mL centrifuge tubes. Samples were dried using an evaporative centrifuge set to 37° C. Samples were reconstituted using 0.2 mL of 5:95 acetonitrile:water and analyzed by HPLC/UV/MS.
Reconstituted samples were analyzed by positive ion HPLC/UV/MS using a Thermo Orbitrap Elite mass spectrometer operating in positive ion electrospray mode. Xcalibur software version 3.0.63 was used to control the HPLC/UV/MS system. Full scan data were collected at 15,000 resolution. Data dependent product ion scans of the two most intense ions found in the full scan were obtained at 15,000 resolution. The dynamic exclusion function was used with a 10 second exclusion duration after 3 successive product ion scans with an early exclusion if the precursor ion fell below a signal to noise ratio of 20. The HPLC system consisted of an Accela quaternary solvent delivery pump, an Accela autoinjector, an Accela PDA Plus photodiode array detector (Thermo Electron Corporation). Chromatography was performed on a Phenomenex Kinetex column (2.1 mm×100 mm, 2.6 μm) at 45° C. using a HotSleeve column heater (Analytical Sales and Services). The mobile phase was composed of 0.1% formic acid in water (solvent A) and acetonitrile (solvent B). The solvent delivery gradient program was as follows:

human GLP-1R [2] = target: human GLP-1R (Homo sapiens, UniProt P43220); test: CHO GLP-1R Clone H6 - Assay 1 (HTRF cAMP agonist assay)
Procedure: (§1) GLP-1R-mediated agonist activity was determined with a cell-based functional assay utilizing an HTRF (Homogeneous Time-Resolved Fluorescence) cAMP detection kit (cAMP HI Range Assay Kit; CisBio cat #62AM6PEJ) that measures cAMP levels in the cell. The method is a competitive immunoassay between native cAMP produced by the cells and exogenous cAMP labeled with the dye d2. The tracer binding is visualized by a mAb anti-cAMP labeled with Cryptate. The specific signal (i.e. energy transfer) is inversely proportional to the concentration of cAMP in either standard or experimental sample.
(§2) The human GLP-1R coding sequence (NCBI Reference Sequence NP_002053.3, including naturally-occurring variant Gly168Ser) was subcloned into pcDNA3 (Invitrogen) and a cell line stably expressing the receptor was isolated (designated Clone H6).
(§3) Cells were removed from cryopreservation, re-suspended in 40 mL of Dulbecco's Phosphate Buffered Saline (DPBS—Lonza Cat #17-512Q) and centrifuged at 800×g for 5 minutes at 22° C. The cell pellet was then re-suspended in 10 mL of growth medium [DMEM/F12 1:1 Mixture with HEPES, L-Gln, 500 mL (DMEM/F12 Lonza Cat #12-719F), 10% heat inactivated fetal bovine serum (Gibco Cat #16140-071), 5 mL of 100× Pen-Strep (Gibco Cat #15140-122), 5 mL of 100× L-Glutamine (Gibco Cat #25030-081) and 500 μg/mL Geneticin (G418) (Invitrogen #10131035)]. A 1 mL sample of the cell suspension in growth media was counted on a Becton Dickinson ViCell to determine cell viability and cell count per mL. The remaining cell suspension was then adjusted with growth media to deliver 2000 viable cells per well using a Matrix Combi Multidrop reagent dispenser, and the cells were dispensed into a white 384 well tissue culture treated assay plate (Corning 3570). The assay plate was then incubated for 48 hours at 37° C. in a humidified environment in 5% carbon dioxide.
(§4) Varying concentrations of each compound to be tested (in DMSO) were diluted in assay buffer (HBSS with Calcium/Magnesium (Lonza/BioWhittaker cat #10-527F)/0.1% BSA (Sigma Aldrich cat #A7409-1L)/20 mM HEPES (Lonza/BioWhittaker cat #17-737E) containing 100 μM 3-isobutyl-1-methylxanthin (IBMX; Sigma cat #15879). The final DMSO concentration is 1%.
(§5) After 48 hours, the growth media was removed from the assay plate wells, and the cells were treated with 20 μL of the serially diluted compound in assay buffer for 30 minutes at 37° C. in a humidified environment in 5% carbon dioxide. Following the 30 minute incubation, 10 μL of labeled d2 cAMP and 10 μL of anti-cAMP antibody (both diluted 1:20 in cell lysis buffer; as described in the manufacturer's assay protocol) were added to each well of the assay plate. The plates were then incubated at room temperature and after 60 minutes, changes in the HTRF signal were read with an Envision 2104 multi-label plate reader using excitation of 330 nm and emissions of 615 and 665 nm. Raw data were converted to nM cAMP by interpolation from a cAMP standard curve (as described in the manufacturer's assay protocol) and the percent effect was determined relative to a saturating concentration of the full agonist GLP-17-36 (1 μM) included on each plate. EC50 determinations were made from agonist dose-response curves analyzed with a curve fitting program using a 4-parameter logistic dose response equation.

human GLP-1R [3] = target: human GLP-1R (Homo sapiens, UniProt P43220, G168S); test: as above; settings: read-out: Assay 1 Emax (%)
Procedure: as §1, §2, §3, §4, §5

human GLP-1R [4] = target: T1, human GLP-1R (Homo sapiens, UniProt P43220, L260F); test: CHO GLP-1R Clone C6 - Assay 2 (HTRF cAMP agonist assay, low receptor density); format: cell-based; settings: CHO GLP-1R Clone C6 (low receptor density)
T1 construct: expressed in transfected cells
T1 sequence (P43220 24-463 L260F): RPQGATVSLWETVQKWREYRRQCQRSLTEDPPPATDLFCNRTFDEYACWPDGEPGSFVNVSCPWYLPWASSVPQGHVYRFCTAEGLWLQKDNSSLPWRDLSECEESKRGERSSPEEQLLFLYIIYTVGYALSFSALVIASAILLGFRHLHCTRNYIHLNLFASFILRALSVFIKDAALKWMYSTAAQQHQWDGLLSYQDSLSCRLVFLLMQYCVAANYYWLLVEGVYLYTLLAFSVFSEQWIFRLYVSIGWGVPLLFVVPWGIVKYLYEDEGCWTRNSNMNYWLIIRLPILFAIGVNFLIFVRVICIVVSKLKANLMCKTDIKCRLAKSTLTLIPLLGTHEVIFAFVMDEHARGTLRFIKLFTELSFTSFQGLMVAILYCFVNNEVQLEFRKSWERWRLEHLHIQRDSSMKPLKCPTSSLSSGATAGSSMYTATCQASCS
Procedure: GLP-1R-mediated agonist activity was determined with a cell-based functional assay utilizing an HTRF (Homogeneous Time-Resolved Fluorescence) cAMP detection kit (cAMP HI Range Assay Kit; Cis Bio cat #62AM6PEJ) that measures cAMP levels in the cell. The method is a competitive immunoassay between native cAMP produced by the cells and exogenous cAMP labeled with the dye d2. The tracer binding is visualized by a mAb anti-cAMP labeled with Cryptate. The specific signal (i.e. energy transfer) is inversely proportional to the concentration of cAMP in either a standard or an experimental sample.
The human GLP-1R coding sequence (NCBI Reference Sequence NP_002053.3, including naturally-occurring variant Leu260Phe) was subcloned into pcDNA5-FRT-TO and a clonal CHO cell line stably expressing a low receptor density was isolated using the Flp-In™ T-Rex™ System, as described by the manufacturer (ThermoFisher).
Cells were removed from cryopreservation, re-suspended in 40 mL of Dulbecco's Phosphate Buffered Saline (DPBS—Lonza Cat #17-512Q) and centrifuged at 800×g for 5 minutes at 22° C. The DPBS was aspirated, and the cell pellet was re-suspended in 10 mL of complete growth medium (DMEM:F12 1:1 Mixture with HEPES, L-Gln, 500 mL (DMEM/F12 Lonza Cat #12-719F), 10% heat inactivated fetal bovine serum (Gibco Cat #16140-071), 5 mL of 100× Pen-Strep (Gibco Cat #15140-122), 5 mL of 100× L-Glutamine (Gibco Cat #25030-081), 700 μg/mL Hygromycin (Invitrogen Cat #10687010) and 15 μg/mL Blasticidin (Gibco Cat #R21001). A 1 mL sample of the cell suspension in growth media was counted on a Becton Dickinson ViCell to determine cell viability and cell count per mL. The remaining cell suspension was then adjusted with growth media to deliver 1600 viable cells per well using a Matrix Combi Multidrop reagent dispenser, and the cells were dispensed into a white 384 well tissue culture treated assay plate (Corning 3570). The assay plate was then incubated for 48 hours at 37° C. in a humidified environment (95% O2, 5% CO2)
Varying concentrations of each compound to be tested (in DMSO) were diluted in assay buffer [HBSS with Calcium/Magnesium (Lonza/BioWhittaker cat #10-527F)/0.1% BSA (Sigma Aldrich cat #A7409-1L)/20 mM HEPES (Lonza/BioWhittaker cat #17-737E)] containing 100 μM 3-isobutyl-1-methylxanthin (IBMX; Sigma cat #15879). The final DMSO concentration in the compound/assay buffer mixture is 1%.
After 48 hours, the growth media was removed from the assay plate wells, and the cells were treated with 20 μL of the serially diluted compound in assay buffer for 30 minutes at 37° C. in a humidified environment (95% O2, 5% CO2). Following the 30 minute incubation, 10 μL of labeled d2 cAMP and 10 μL of anti-cAMP antibody (both diluted 1:20 in cell lysis buffer; as described in the manufacturer's assay protocol) were added to each well of the assay plate. The plates were then incubated at room temperature and after 60 minutes, changes in the HTRF signal were read with an Envision 2104 multi-label plate reader using excitation of 330 nm and emissions of 615 and 665 nm. Raw data were converted to nM cAMP by interpolation from a cAMP standard curve (as described in the manufacturer's assay protocol) and the percent effect was determined relative to a saturating concentration of the full agonist GLP-1 (1 μM) included on each plate. EC50 determinations were made from agonist dose response curves analyzed with a curve fitting program using a 4-parameter logistic dose response equation.

Chain of human GLP-1R (Homo sapiens, UniProt P43220) (P43220 24-463 G168S): as the sequence (P43220 24-463 L260F) above, with G145S, F237L counted along it
Chain of human GLP-1R (Homo sapiens, UniProt P43220, G168S) (P43220 24-463 G168S): as the sequence (P43220 24-463 L260F) above, with G145S, F237L counted along it

With `O=C(O)c1ccc2nc(CN3CCC(c4cccc(=O)[nH]4)CC3)n(C[C@@H]3CCO3)c2c1` [Compound M2, (S)-2-((4-(6-hydroxypyridin-2-yl)piperidin-1-yl)methyl)-1-(oxetan-2-ylmethyl)-1H-benzo[d]imidazole-6-carboxylic acid] the “observed as major or minor metabolite in human plasma” value ([1]; Compound 1 120 mg BID, Day 28) was “major circulating metabolite”, the “Plasma Extracts” value ([1]; Compound 1 120 mg oral BID, Day 28, HPLC/UV/MS) was “+++” and the EC50 (human GLP-1R [2]) was > 20 µM. The Emax (human GLP-1R [3]) was 2%, the Emax (human GLP-1R [4]; arithmetic mean, relative to 1 μM GLP-1) was 0% and the EC50 (human GLP-1R [4]; geometric mean) was > 20 µM.
